Species: Rattus norvegicus
Test: DrugMatrix - Regimen: Daily Repeat
Type: toxicity, organism-based, Sprague-Dawley
Design: regimen Daily Repeat, gender Male, age 6-8 weeks
Settings: in vivo, po, route oral GAVAGE, vehicle .5 % CMC; for BASOPHIL / EOSINOPHIL / ERYTHROCYTE COUNT / HEMATOCRIT / HEMOGLOBIN / LEUKOCYTE COUNT / LYMPHOCYTE / MEAN CORPUSCULAR HEMOGLOBIN / MEAN CORPUSCULAR HEMOGLOBIN CONCENTRATION / MEAN CORPUSCULAR VOLUME / MONOCYTE / NEUTROPHIL / PLATELET COUNT: tissue Blood; for ALANINE AMINOTRANSFERASE / ALBUMIN / ALKALINE PHOSPHATASE / ASPARTATE AMINOTRANSFERASE / BLOOD UREA NITROGEN / CHLORIDE / CHOLESTEROL / CREATINE PHOSPHOKINASE / CREATININE / GLUCOSE / PHOSPHORUS / POTASSIUM / SODIUM / TOTAL BILIRUBIN / TOTAL PROTEIN: tissue Plasma
[1] = 0 mg/kg, 72 h, dose level Control, time 3 day
[2] = 0 mg/kg, 120 h, dose level Control, time 5 day
[3] = 10 mg/kg, 72 h, dose level Low, time 3 day
[4] = 10 mg/kg, 120 h, dose level Low, time 5 day
[5] = 1500 mg/kg, 72 h, dose level High, time 3 day
[6] = 1500 mg/kg, 120 h, dose level High, time 5 day

COc1ccc(Cl)cc1C(=O)NCCc1ccc(S(=O)(=O)NC(=O)NC2CCCCC2)cc1 [GLYBURIDE]
BASOPHIL [1]: 0%
EOSINOPHIL [1]: 0%
ERYTHROCYTE COUNT [1]: 6.34 x10E6/uL
HEMATOCRIT [1]: 37.62%
HEMOGLOBIN [1]: 14.82 G/DL
LEUKOCYTE COUNT [1]: 11.18 x10E3/uL
LYMPHOCYTE [1]: 87.5%
MEAN CORPUSCULAR HEMOGLOBIN [1]: 23.48 pg
MEAN CORPUSCULAR HEMOGLOBIN CONCENTRATION [1]: 39.5 G/DL
MEAN CORPUSCULAR VOLUME [1]: 59.45 fL
MONOCYTE [1]: 1.67%
NEUTROPHIL [1]: 10.83%
PLATELET COUNT [1]: 1074.83 x10E3/uL
ALANINE AMINOTRANSFERASE [1]: 36.5 u/L
ALBUMIN [1]: 3.9 G/DL
ALKALINE PHOSPHATASE [1]: 370.17 u/L
ASPARTATE AMINOTRANSFERASE [1]: 63.17 u/L
BLOOD UREA NITROGEN [1]: 16.83 mg/dL
CHLORIDE [1]: 99.33 MEQ/L
CHOLESTEROL [1]: 64.33 mg/dL
CREATINE PHOSPHOKINASE [1]: 127 u/L
CREATININE [1]: 0.55 mg/dL
GLUCOSE [1]: 173.5 mg/dL
PHOSPHORUS [1]: 10.08 mg/dL
POTASSIUM [1]: 6.23 MEQ/L
SODIUM [1]: 143.5 MEQ/L
TOTAL BILIRUBIN [1]: 0.52 mg/dL
TOTAL PROTEIN [1]: 6.35 G/DL
BASOPHIL [2]: 0%
EOSINOPHIL [2]: 0.17%
ERYTHROCYTE COUNT [2]: 6.12 x10E6/uL
HEMATOCRIT [2]: 37.08%
HEMOGLOBIN [2]: 14.82 G/DL
LEUKOCYTE COUNT [2]: 11.87 x10E3/uL
LYMPHOCYTE [2]: 83.33%
MEAN CORPUSCULAR HEMOGLOBIN [2]: 24.25 pg
MEAN CORPUSCULAR HEMOGLOBIN CONCENTRATION [2]: 39.97 G/DL
MEAN CORPUSCULAR VOLUME [2]: 60.65 fL
MONOCYTE [2]: 1.5%
NEUTROPHIL [2]: 15%
PLATELET COUNT [2]: 1042.83 x10E3/uL
ALANINE AMINOTRANSFERASE [2]: 46 u/L
ALBUMIN [2]: 3.82 G/DL
ALKALINE PHOSPHATASE [2]: 369.5 u/L
ASPARTATE AMINOTRANSFERASE [2]: 65 u/L
BLOOD UREA NITROGEN [2]: 16.33 mg/dL
CHLORIDE [2]: 100.67 MEQ/L
CHOLESTEROL [2]: 57.17 mg/dL
CREATINE PHOSPHOKINASE [2]: 130 u/L
CREATININE [2]: 0.53 mg/dL
GLUCOSE [2]: 163.33 mg/dL
PHOSPHORUS [2]: 9.53 mg/dL
POTASSIUM [2]: 6.27 MEQ/L
SODIUM [2]: 144.83 MEQ/L
TOTAL BILIRUBIN [2]: 0.55 mg/dL
TOTAL PROTEIN [2]: 6.32 G/DL
BASOPHIL [3]: 0%
EOSINOPHIL [3]: 0.33%
ERYTHROCYTE COUNT [3]: 6.67 x10E6/uL
HEMATOCRIT [3]: 40.2%
HEMOGLOBIN [3]: 15.57 G/DL
LEUKOCYTE COUNT [3]: 12.13 x10E3/uL
LYMPHOCYTE [3]: 90.33%
MEAN CORPUSCULAR HEMOGLOBIN [3]: 23.33 pg
MEAN CORPUSCULAR HEMOGLOBIN CONCENTRATION [3]: 38.7 G/DL
MEAN CORPUSCULAR VOLUME [3]: 60.3 fL
MONOCYTE [3]: 1.33%
NEUTROPHIL [3]: 8%
PLATELET COUNT [3]: 1148 x10E3/uL
ALANINE AMINOTRANSFERASE [3]: 30.33 u/L
ALBUMIN [3]: 4.1 G/DL
ALKALINE PHOSPHATASE [3]: 317.67 u/L
ASPARTATE AMINOTRANSFERASE [3]: 61 u/L
BLOOD UREA NITROGEN [3]: 15 mg/dL
CHLORIDE [3]: 99.33 MEQ/L
CHOLESTEROL [3]: 66.33 mg/dL
CREATINE PHOSPHOKINASE [3]: 164.67 u/L
CREATININE [3]: 0.5 mg/dL
GLUCOSE [3]: 160.33 mg/dL
PHOSPHORUS [3]: 11.87 mg/dL
POTASSIUM [3]: 6.23 MEQ/L
SODIUM [3]: 144.67 MEQ/L
TOTAL BILIRUBIN [3]: 0.3 mg/dL
TOTAL PROTEIN [3]: 6.77 G/DL
BASOPHIL [4]: 0%
EOSINOPHIL [4]: 0%
ERYTHROCYTE COUNT [4]: 6.4 x10E6/uL
HEMATOCRIT [4]: 37.3%
HEMOGLOBIN [4]: 14.67 G/DL
LEUKOCYTE COUNT [4]: 11.77 x10E3/uL
LYMPHOCYTE [4]: 91.67%
MEAN CORPUSCULAR HEMOGLOBIN [4]: 22.97 pg
MEAN CORPUSCULAR HEMOGLOBIN CONCENTRATION [4]: 39.33 G/DL
MEAN CORPUSCULAR VOLUME [4]: 58.27 fL
MONOCYTE [4]: 0.67%
NEUTROPHIL [4]: 7.67%
PLATELET COUNT [4]: 1048 x10E3/uL
ALANINE AMINOTRANSFERASE [4]: 33 u/L
ALBUMIN [4]: 3.77 G/DL
ALKALINE PHOSPHATASE [4]: 328 u/L
ASPARTATE AMINOTRANSFERASE [4]: 52.33 u/L
BLOOD UREA NITROGEN [4]: 13.67 mg/dL
CHLORIDE [4]: 98.33 MEQ/L
CHOLESTEROL [4]: 53.33 mg/dL
CREATINE PHOSPHOKINASE [4]: 128.67 u/L
CREATININE [4]: 0.57 mg/dL
GLUCOSE [4]: 174 mg/dL
PHOSPHORUS [4]: 10.77 mg/dL
POTASSIUM [4]: 5.8 MEQ/L
SODIUM [4]: 144.33 MEQ/L
TOTAL BILIRUBIN [4]: 0.37 mg/dL
TOTAL PROTEIN [4]: 6.13 G/DL
BASOPHIL [5]: 0%
EOSINOPHIL [5]: 0%
ERYTHROCYTE COUNT [5]: 6.36 x10E6/uL
HEMATOCRIT [5]: 37.7%
HEMOGLOBIN [5]: 14.87 G/DL
LEUKOCYTE COUNT [5]: 13.87 x10E3/uL
LYMPHOCYTE [5]: 88.67%
MEAN CORPUSCULAR HEMOGLOBIN [5]: 23.43 pg
MEAN CORPUSCULAR HEMOGLOBIN CONCENTRATION [5]: 39.47 G/DL
MEAN CORPUSCULAR VOLUME [5]: 59.33 fL
MONOCYTE [5]: 1%
NEUTROPHIL [5]: 10.33%
PLATELET COUNT [5]: 1260.33 x10E3/uL
ALANINE AMINOTRANSFERASE [5]: 32 u/L
ALBUMIN [5]: 3.4 G/DL
ALKALINE PHOSPHATASE [5]: 223.33 u/L
ASPARTATE AMINOTRANSFERASE [5]: 50 u/L
BLOOD UREA NITROGEN [5]: 12 mg/dL
CHLORIDE [5]: 104.33 MEQ/L
CHOLESTEROL [5]: 52.67 mg/dL
CREATINE PHOSPHOKINASE [5]: 133.33 u/L
CREATININE [5]: 0.4 mg/dL
GLUCOSE [5]: 122.67 mg/dL
PHOSPHORUS [5]: 9.57 mg/dL
POTASSIUM [5]: 6.9 MEQ/L
SODIUM [5]: 150.33 MEQ/L
TOTAL BILIRUBIN [5]: 0.23 mg/dL
TOTAL PROTEIN [5]: 5.47 G/DL
BASOPHIL [6]: 0%
EOSINOPHIL [6]: 0%
ERYTHROCYTE COUNT [6]: 6.13 x10E6/uL
HEMATOCRIT [6]: 36.93%
HEMOGLOBIN [6]: 14.7 G/DL
LEUKOCYTE COUNT [6]: 14.7 x10E3/uL
LYMPHOCYTE [6]: 94.33%
MEAN CORPUSCULAR HEMOGLOBIN [6]: 24.03 pg
MEAN CORPUSCULAR HEMOGLOBIN CONCENTRATION [6]: 39.8 G/DL
MEAN CORPUSCULAR VOLUME [6]: 60.3 fL
MONOCYTE [6]: 0.67%
NEUTROPHIL [6]: 5%
PLATELET COUNT [6]: 1089.67 x10E3/uL
ALANINE AMINOTRANSFERASE [6]: 37 u/L
ALBUMIN [6]: 3.67 G/DL
ALKALINE PHOSPHATASE [6]: 297.33 u/L
ASPARTATE AMINOTRANSFERASE [6]: 58.33 u/L
BLOOD UREA NITROGEN [6]: 12.67 mg/dL
CHLORIDE [6]: 99.67 MEQ/L
CHOLESTEROL [6]: 63.33 mg/dL
CREATINE PHOSPHOKINASE [6]: 139.33 u/L
CREATININE [6]: 0.5 mg/dL
GLUCOSE [6]: 135 mg/dL
PHOSPHORUS [6]: 11.5 mg/dL
POTASSIUM [6]: 6.2 MEQ/L
SODIUM [6]: 145.33 MEQ/L
TOTAL BILIRUBIN [6]: 0.33 mg/dL
TOTAL PROTEIN [6]: 5.93 G/DL

— ChEMBL document CHEMBL3885881, “DrugMatrix”
